Reference: ChEMBL document CHEMBL4765450, “The components and activities analysis of a novel anticoagulant candidate dHG-5” (Eur J Med Chem, 2020)
Active and inactive are the calls of the source. The calls are words filed in the database; no cut-off is given here.

Assays:
[1] = system: Rattus norvegicus; assay: Antithrombotic activity in thromboplastin and stasis-induced Sprague-Dawley rat deep venous thrombosis model assessed as reduction in venous thrombosis at 2.7 mg/kg, sc administered 1 hr prior to thromboplastin addition for 20 secs followed by establishment of stasis for 20 mins; format: functional; set-up: scale not given: the % may be the effect or the level left; conditions: time 80.33 min, 1.339 h
[2] = MRT (0 to 8 hrs) in Kunming mouse at 15.3 mg/kg, sc; format: ADME, organism-based; conditions: in vivo
[3] = system: Mus musculus; assay: Anticoagulation activity in Kunming mouse assessed as APTT-prolonging effect by measuring time for maximum effect at 1.7 mg/kg, sc measured after 0.5 to 8 hrs by APTT reagent based assay; format: functional; conditions: time 0.5-8 hrs
[4] = target: T1, Coagulation factor VII (Homo sapiens) (UniProt P08709); assay: Inhibition of factor 7a (unknown origin) at IC50 using pefachrome factor VIIa as substrate preincubated for 1 min followed by chromogenic substrate addition and measured for 2 mins in presence of AT-III; conditions: time 3.0 min
T1 sequence (whole entry): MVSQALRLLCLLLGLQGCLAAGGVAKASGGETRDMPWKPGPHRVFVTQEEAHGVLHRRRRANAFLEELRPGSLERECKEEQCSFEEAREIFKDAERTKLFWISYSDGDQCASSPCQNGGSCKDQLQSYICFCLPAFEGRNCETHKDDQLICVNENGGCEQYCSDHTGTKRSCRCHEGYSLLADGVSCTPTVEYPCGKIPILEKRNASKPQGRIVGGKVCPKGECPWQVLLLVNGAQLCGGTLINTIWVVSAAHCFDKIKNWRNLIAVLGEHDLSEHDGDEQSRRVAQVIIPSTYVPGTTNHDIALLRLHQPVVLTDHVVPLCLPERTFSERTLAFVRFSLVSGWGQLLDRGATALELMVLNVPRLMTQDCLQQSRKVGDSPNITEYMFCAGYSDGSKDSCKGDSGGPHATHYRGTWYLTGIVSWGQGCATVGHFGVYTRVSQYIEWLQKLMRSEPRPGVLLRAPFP

[5] = system: Mus musculus; assay: Anticoagulation activity in Kunming mouse assessed as APTT-prolonging effect by measuring time for maximum effect at 5.11 mg/kg, sc measured after 0.5 to 8 hrs by APTT reagent based assay; format: functional; conditions: time 0.5-8 hrs
[6] = Tmax in Kunming mouse at 1.7 mg/kg, sc; format: ADME, organism-based; conditions: in vivo
[7] = system: Plasma; assay: Induction of platelet aggregation in human platelet rich plasma at plasma peak concentration of 10 times anti-thrombosis ED50 measured after 10 mins by light transmission aggregometry
[8] = MRT (0 to infinity) in Kunming mouse at 15.3 mg/kg, sc; format: ADME, organism-based; conditions: in vivo
[9] = target: Coagulation factor XI (Homo sapiens) (UniProt P03951); assay: Inhibition of factor 11a (unknown origin) at IC90 using S-2366 as substrate preincubated for 1 min followed by chromogenic substrate addition and measured for 2 mins in presence of AT-III; conditions: time 3.0 min
[10] = target: T2, Coagulation factor XII (Homo sapiens) (UniProt P00748); assay: Inhibition of factor 12a (unknown origin) at IC50 using kallikrein chromogenic substrate preincubated for 1 min followed by chromogenic substrate addition and measured for 2 mins; conditions: time 3.0 min
T2 sequence (whole entry): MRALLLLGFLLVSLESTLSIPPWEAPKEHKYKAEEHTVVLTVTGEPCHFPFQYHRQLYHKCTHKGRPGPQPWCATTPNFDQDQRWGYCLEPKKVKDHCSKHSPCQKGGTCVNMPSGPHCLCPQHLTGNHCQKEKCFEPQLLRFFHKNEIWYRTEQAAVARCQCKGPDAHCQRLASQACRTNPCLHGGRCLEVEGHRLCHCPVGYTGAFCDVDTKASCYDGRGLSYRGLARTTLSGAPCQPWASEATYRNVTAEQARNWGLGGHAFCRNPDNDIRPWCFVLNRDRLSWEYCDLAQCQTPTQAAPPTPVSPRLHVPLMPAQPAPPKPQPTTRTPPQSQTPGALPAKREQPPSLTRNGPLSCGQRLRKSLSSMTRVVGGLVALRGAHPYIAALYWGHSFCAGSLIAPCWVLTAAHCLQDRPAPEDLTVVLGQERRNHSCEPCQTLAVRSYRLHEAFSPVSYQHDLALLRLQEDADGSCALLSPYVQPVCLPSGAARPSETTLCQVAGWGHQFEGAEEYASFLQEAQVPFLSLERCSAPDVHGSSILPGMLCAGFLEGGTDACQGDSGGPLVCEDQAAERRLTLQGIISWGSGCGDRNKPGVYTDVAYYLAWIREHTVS

[11] = system: Plasma; assay: Anticoagulation activity in human plasma assessed as drug level causing 20 times doubling of APTT preincubated for 2 mins followed by APTT reagent and measured after 3 mins by coagulometric method; format: functional; conditions: time 5 min

Sequence of Coagulation factor XI (Homo sapiens) (P03951 19-387 limits assumed): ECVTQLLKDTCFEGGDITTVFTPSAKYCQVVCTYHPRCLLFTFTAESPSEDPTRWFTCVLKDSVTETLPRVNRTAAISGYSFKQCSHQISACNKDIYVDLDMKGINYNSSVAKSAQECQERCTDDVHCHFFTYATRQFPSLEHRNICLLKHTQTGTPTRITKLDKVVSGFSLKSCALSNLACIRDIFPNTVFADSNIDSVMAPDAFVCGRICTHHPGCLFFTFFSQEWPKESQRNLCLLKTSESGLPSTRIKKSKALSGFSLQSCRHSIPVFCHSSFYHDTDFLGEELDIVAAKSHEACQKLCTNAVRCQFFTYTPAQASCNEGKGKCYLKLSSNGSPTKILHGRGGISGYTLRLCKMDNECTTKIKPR
Sequence of Coagulation factor XI (Homo sapiens) (P03951 388-625 limits assumed): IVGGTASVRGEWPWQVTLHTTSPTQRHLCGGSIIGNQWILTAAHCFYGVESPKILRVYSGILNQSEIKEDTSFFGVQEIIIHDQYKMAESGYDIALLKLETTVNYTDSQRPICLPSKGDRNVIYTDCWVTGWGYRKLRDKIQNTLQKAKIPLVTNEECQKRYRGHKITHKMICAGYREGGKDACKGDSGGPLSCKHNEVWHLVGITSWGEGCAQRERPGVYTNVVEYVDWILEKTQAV

**Q.** Which Activity [1] does the source give for `CC(=O)N[C@H]1[C@H](O[C@H]2[C@H](O[C@@H]3O[C@@H](C)[C@@H](OS(=O)(=O)[O-])[C@@H](O)[C@@H]3OS(=O)(=O)O)[C@@H](O)[C@H](O[C@H]3[C@@H](NC(C)=O)[C@H](O[C@H]4[C@H](O[C@@H]5O[C@@H](C)[C@@H](OS(=O)(=O)[O-])[C@@H](O)[C@@H]5OS(=O)(=O)O)[C@@H](O)[C@H](O[C@H]5[C@@H](NC(C)=O)[C@H](O[C@H]6[C@H](O[C@@H]7O[C@@H](C)[C@@H](OS(=O)(=O)[O-])[C@@H](O)[C@@H]7OS(=O)(=O)O)[C@@H](O)[C@H](O[C@H]7[C@@H](NC(C)=O)[C@H](O[C@H]8[C@H](O[C@@H]9O[C@@H](C)[C@@H](OS(=O)(=O)[O-])[C@@H](O)[C@@H]9OS(=O)(=O)O)[C@@H](O)[C@H](O[C@H]9[C@@H](NC(C)=O)[C@H](O[C@@H]([C@H](O[C@@H]%10O[C@@H](C)[C@@H](OS(=O)(=O)[O-])[C@@H](O)[C@@H]%10OS(=O)(=O)O)[C@@H](O)CO)[C@H](O)C(=O)[O-])O[C@H](COS(=O)(=O)[O-])[C@@H]9OS(=O)(=O)[O-])O[C@@H]8C(=O)[O-])O[C@H](COS(=O)(=O)[O-])[C@@H]7OS(=O)(=O)[O-])O[C@@H]6C(=O)[O-])O[C@H](COS(=O)(=O)[O-])[C@@H]5OS(=O)(=O)[O-])O[C@@H]4C(=O)[O-])O[C@H](COS(=O)(=O)[O-])[C@@H]3OS(=O)(=O)[O-])O[C@@H]2C(=O)[O-])O[C@H](COS(=O)(=O)[O-])[C@H](OS(=O)(=O)[O-])[C@@H]1O[C@@H]1OC(C(=O)[O-])=C[C@H](O[C@@H]2O[C@@H](C)[C@@H](OS(=O)(=O)[O-])[C@@H](O)[C@@H]2OS(=O)(=O)O)[C@H]1O.[Na+].[Na+].[Na+].[Na+].[Na+].[Na+].[Na+].[Na+].[Na+].[Na+].[Na+].[Na+].[Na+].[Na+].[Na+].[Na+].[Na+].[Na+].[Na+].[Na+].[Na+].[Na+]` here?
**A.** 60.7%

**Q.** And the MRT last [2]?
**A.** 1.66 h

**Q.** What about the Emax [3] of the same compound?
**A.** 4.39 s

**Q.** And the inhibition [4]?
**A.** inactive

**Q.** And the Emax [5]?
**A.** 7.68 s

**Q.** What about the Tmax [6] of the same compound?
**A.** 1.17 h

**Q.** And the Activity [7]?
**A.** Not Active

**Q.** And the MRT inf [8]?
**A.** 1.71 h

**Q.** And the inhibition [9]?
**A.** Active

**Q.** And the inhibition [10]?
**A.** inactive

**Q.** And the EC [11]?
**A.** 1.79 µM
